Test results published in patent publication US20260071190A1, “SARS CORONAVIRUS 2 R[…] […] GENES, DERIVED FROM GH CLADE SARS CORONAVIRUS 2 OF KOREAN ISOLATE, AND THE PRODUCTION METHOD THEREFOR” (RpexBio, Inc., priority 2022, published 2026).

System: rSARS-COV-2/YS006_Nluc
Type: cell-based, SARS coronavirus 2
Settings: compared to healthy human-derived IgG control, FIG. 4D

“etesevimab: Eli Lilly's recombinant monoclonal antibody for the treatment of SARS coronavirus 2” was tested, and the “inhibition of viral entry into cells / reporter expression” value was “inhibit viral entry into cells and reduce reporter expression as its concentration increased”.
